Our source for the IC50 values is patent publication US20220227765A1, “PYRIDO-INDOLE ANALOGUES AS GPX4 INHIBITORS” (Ferro Therapeutics, Inc., priority 2019, published 2022).

Format in all cases: cell-based, human
One test relates to SJSA-1. Briefly: Cell proliferation (Alamar Blue) assay, SJSA-1. To be noted: Homo sapiens, SJSA-1, 24 h, Table B-3, head prints SJSB-1, 24 h, read-out: IC50 (μM) SJSB-1. As to the method:
(§1) Cell viability assay was performed to assess the potency of the compounds in human cancer cell lines 786-0 (renal cell carcinoma) and SJSA-1 (osteosarcoma). Additional cell lines, such as pancreatic cancer cell lines (Panc 02.13, BxPC-3, Panc 12, Panc 02.03, Panc 6.03, PSN-1, HPAC, and Capan-1), prostate cancer cell lines (PC-3, DU145, 22Rv1, NCI-H660, BPH1, LNCaP, BM-1604, and MDA PCa 2b), etc., can be tested in a similar method.
(§2) Cells (SJSA-1, 786-0 and A431) were seeded (5000 cells/100 μL/well) in 96-well tissue culture plate and incubated at 37° C./5% CO2 for 16-24 hours. The cells were then treated with compounds (25 μL of 5×). The compound concentrations were 10-0.0005 μM prepared in 3-fold serial dilutions with final DMSO concentration of 1%. The plates were then incubated for 24 h at 37° C./5% CO2 in a moist environment. Then Alamar Blue™ reagent (final concentration 1×-12.5 μL) was added to each well and incubated for 1.5 hours at 37° C./5% CO2. The plates were read on fluorescence reader at 540 nm excitation and 590 nm emission wavelengths. The IC50 values were subsequently determined using a sigmoidal dose-response curve (variable slope) in GraphPad Prism® 5 software. Table A-3, Table B-3 and Table C-3 show cell proliferation data for certain compounds as described herein.
Background: Alamar Blue is a resazurin reagent that responds to reducing activity.

The next test concerns A431. The test is described as follows: Cell proliferation (Alamar Blue) assay, A431. The settings on record: Table B-3, A431 cells. The procedure: as §1, §2
A further test concerns 786-O. Briefly: Cell proliferation (Alamar Blue) assay, 786-O. To be noted: Homo sapiens, 786-0, 24 h, Table B-3, 786-O cells. The procedure:
as §1, §2

Molecules are shown by their SMILES.

As to `C#CC(=O)N1[C@@H](CCCC)Cc2c([nH]c3ccccc23)[C@@H]1c1ccc(NC23CC4CC(CC(C4)C2)C3)cc1` [Compound B-18], the IC50 (usually the concentration that inhibits the measured activity by half) in the test on SJSA-1 was 0.006 µM; in the test on A431 (24 h) it was 7.8 µM; in the test on 786-O it was 0.005 µM.
As to `C#CC(=O)N1[C@@H](CCCC)Cc2c([nH]c3ccccc23)[C@@H]1c1ccc(C(=O)NCCn2ccnc2)cc1` [Compound B-19], the IC50 is 0.294 µM in the test on SJSA-1; over 10 µM in the test with A431 (Homo sapiens, A-431, 24 h); 0.367 µM in the test on 786-O.
For `C#CC(=O)N1[C@@H](CCCC)Cc2c([nH]c3c(F)cc(F)cc23)[C@@H]1c1nccn1C` [Compound B-24], the IC50 in the test on SJSA-1 was 0.167 µM; with A431 (Homo sapiens, A-431, 24 h) it was over 10 µM; with 786-O it was 0.123 µM.
Consider `C#CC(=O)N1C(CCCC)Cc2c([nH]c3ccccc23)[C@@H]1c1ccc(CNCC23CC4CC(CC(C4)C2)C3)cc1` (stereo partly drawn) [Compound B-45A], for which the IC50 in the test with SJSA-1 was 0.001 µM; with A431 (Homo sapiens, A-431, 24 h), 3.8 µM; in the test on 786-O, 0.0002 µM.
Take `C#CC(=O)N1C(CCCC)Cc2c([nH]c3ccccc23)[C@H]1c1ccc(CNCC23CC4CC(CC(C4)C2)C3)cc1` (stereo partly drawn) [Compound B-45B]: the IC50 in the test on SJSA-1 was 0.011 µM; with A431 (Homo sapiens, A-431, 24 h), 1.7 µM; in the test on 786-O, 0.005 µM.
Regarding `C#CC(=O)N1[C@@H](CCCC)Cc2c([nH]c3c(F)cc(F)cc23)[C@@H]1c1ccc(N2CCN(C)CC2)cc1` [Compound B-57], the IC50 was 0.063 µM in the test with SJSA-1; over 10 µM in the test on A431 (Homo sapiens, A-431, 24 h); 0.059 µM in the test with 786-O.
For `C#CC(=O)N1[C@@H](CCCC)Cc2c([nH]c3c(F)cc(F)cc23)[C@@H]1c1ccc(N2CCN(C)CC2)c(C#N)c1` [Compound B-58] the same measures were 0.15 µM, over 10 µM and 0.135 µM.
For the compound `C#CC(=O)N1[C@@H](CCCC)Cc2c([nH]c3c(F)cc(F)cc23)[C@@H]1c1ccc(N2CCC2)cc1` [Compound B-59], the IC50 in the test on SJSA-1 is 0.016 µM; with A431 (Homo sapiens, A-431, 24 h), over 10 µM; in the test with 786-O, 0.011 µM.
On to `C#CC(=O)N1[C@@H](CCCC)Cc2c([nH]c3c(F)cc(F)cc23)[C@@H]1c1ccc(N2CCC2)c(C#N)c1` [Compound B-60], for which the IC50 with SJSA-1 is 0.706 µM; with A431 (Homo sapiens, A-431, 24 h), over 10 µM; in the test on 786-O it was 0.31 µM.
For `C#CC(=O)N1[C@@H](CC)Cc2c([nH]c3c(F)cc(F)cc23)[C@@H]1c1ccc(F)cc1` [Compound B-61] the same measures were 0.068 µM, over 10 µM and 0.062 µM.
For `C#CC(=O)N1C(c2ccn(-c3ccc(F)cc3)n2)c2[nH]c3ccccc3c2C[C@@H]1CCCC` (stereo partly drawn) [Compound B-62], the IC50 in the test on SJSA-1 came to 0.021 µM; in the test with A431 (Homo sapiens, A-431, 24 h) it was 6.4 µM; with 786-O, 0.029 µM.
For `C#CC(=O)N1C(c2ccn(C34CC5CC(CC(C5)C3)C4)n2)c2[nH]c3ccccc3c2C[C@@H]1CCCC` (stereo partly drawn) [Compound B-63] the same measures were 0.059 µM, 5.8 µM and 0.061 µM.
For `C#CC(=O)N1[C@@H](CCCC)Cc2c([nH]c3ccc(F)cc23)[C@@H]1c1ccc(NC23CC4CC(CC(C4)C2)C3)cc1` [Compound B-64] the same measures were 0.012 µM, 4.45 µM and 0.008 µM.
For `C#CC(=O)N1[C@@H](CCCC)Cc2c([nH]c3c(F)cc(F)cc23)[C@@H]1c1ccc(NC23CC4CC(CC(C4)C2)C3)cc1` [Compound B-65] the same measures were 0.016 µM, 3.53 µM and 0.015 µM.
Consider `C#CC(=O)N1[C@@H](CCC)Cc2c([nH]c3ccccc23)[C@@H]1c1ccc(NC23CC4CC5CC(C2)C54C3)cc1` (stereo partly drawn) [Compound B-67], for which the IC50 was 0.0025 µM in the test on SJSA-1; 2 µM in the test with A431 (Homo sapiens, A-431, 24 h); 0.006 µM in the test on 786-O.
Turning to `C#CC(=O)N1[C@@H](CCCC)Cc2c([nH]c3ccccc23)[C@@H]1c1ccc(NC2CCCC2)cc1` [Compound B-68], the IC50 in the test with SJSA-1 is 0.0715 µM; in the test on A431 (Homo sapiens, A-431, 24 h), over 10 µM; in the test with 786-O, 0.045 µM.
Consider `C#CC(=O)N1[C@@H](CCCC)Cc2c([nH]c3ccccc23)[C@@H]1c1ccc(N2CCC3(COC3)C2)cc1` [Compound B-69, 1-((1S,3S)-1-(4-(2-oxa-6-azaspiro[3.4]octan-6-yl)phenyl)-3-butyl-1,3,4,9-tetrahydro-2H-pyrido[3,4-b]indol-2-yl)prop-2-yn-1-one], for which the IC50 with SJSA-1 is 0.036 µM; in the test with A431 (Homo sapiens, A-431, 24 h), over 1 µM; with 786-O it was 0.047 µM.
For `C#CC(=O)N1[C@@H](CCCC)Cc2c(n(C)c3ccccc23)[C@@H]1c1ccc(NC23CC4CC(CC(C4)C2)C3)cc1` [Compound B-70, 1-((1S,3S)-1-(4-(((1R,3R,5S)-adamantan-1-yl)amino)phenyl)-3-butyl-9-methyl-1,3,4,9-tetrahydro-2H-pyrido[3,4-b]indol-2-yl)prop-2-yn-1-one] the same measures were 0.066 µM, 4.76 µM and 0.0165 µM.
For `C#CC(=O)N1[C@@H](CCCC)Cc2c([nH]c3ccccc23)[C@@H]1c1ccc(NC2CCCCC2)cc1` [Compound B-71] the same measures were 0.056 µM, over 10 µM and 0.042 µM.
For `C#CC(=O)N1[C@@H](CCCC)Cc2c([nH]c3c(F)cc(F)cc23)[C@@H]1C(C)C` [Compound B-72] the same measures were 0.223 µM, over 10 µM and 0.222 µM.
`C#CC(=O)N1[C@@H](CCCC)Cc2c([nH]c3c(F)cc(F)cc23)[C@@H]1CCC` [Compound B-73]: the IC50 was 0.22 µM in the test with SJSA-1; over 10 µM in the test on A431 (Homo sapiens, A-431, 24 h); 0.14 µM in the test with 786-O.
As for `C#CC(=O)N1[C@@H](CCCC)Cc2c([nH]c3c(F)cc(F)cc23)[C@@H]1CCCC` [Compound B-74], the IC50 was found to be 0.04 µM with SJSA-1; 4.4 µM with A431 (Homo sapiens, A-431, 24 h); 0.05 µM in the test on 786-O.
For `C#CC(=O)N1[C@@H](CCCC)Cc2c([nH]c3c(F)cc(F)cc23)[C@@H]1C1CCC(=O)CC1` [Compound B-76] the same measures were 0.247 µM, over 10 µM and 0.168 µM.
For `C#CC(=O)N1[C@@H](CCCC)Cc2c([nH]c3c(F)cc(F)cc23)[C@@H]1C1CCC(O)CC1` (stereo partly drawn) [Compound B-77], the IC50 with SJSA-1 worked out at 0.16 µM; in the test on A431 (Homo sapiens, A-431, 24 h) it was 6.57 µM; in the test with 786-O it was 0.166 µM.
Turning to `C#CC(=O)N1[C@@H](CCCC)Cc2c([nH]c3c(F)cc(F)cc23)[C@@H]1CCCCCCCC` [Compound B-79], the IC50 stood at 0.08 µM with SJSA-1; 9.4 µM with A431 (Homo sapiens, A-431, 24 h); 0.07 µM with 786-O.
Take `C#CC(=O)N1[C@@H](CCCC)Cc2c([nH]c3c(F)cc(F)cc23)[C@@H]1COCCOC` [Compound B-80]: the IC50 with SJSA-1 turned out to be 0.093 µM; in the test with A431 (Homo sapiens, A-431, 24 h), 6.8 µM; with 786-O, 0.043 µM.
With `C#CC(=O)N1[C@@H](CCCC)Cc2c([nH]c3c(F)cc(F)cc23)[C@@H]1CC(C)C` [Compound B-82], the IC50 in the test on SJSA-1 is 0.16 µM; with A431 (Homo sapiens, A-431, 24 h) it was over 10 µM; with 786-O, 0.2 µM.
In the case of `CCCC[C@H]1Cc2c([nH]c3c(F)cc(F)cc23)[C@H](C23CC(N)(C2)C3)N1C(=O)CCl` [Compound B-83], the IC50 with SJSA-1 was 0.12 µM; in the test with A431 (Homo sapiens, A-431, 24 h) it was over 10 µM; with 786-O, 0.12 µM.
On to `CCCC[C@H]1Cc2c([nH]c3c(F)cc(F)cc23)[C@H](c2ccc(N)cc2)N1C(=O)CCl` [Compound B-85], for which the IC50 was 0.024 µM in the test with SJSA-1; over 10 µM in the test on A431 (Homo sapiens, A-431, 24 h); 0.012 µM in the test with 786-O.
Regarding `C#CC(=O)N1[C@@H](CCCC)Cc2c([nH]c3c(F)cc(F)cc23)[C@@H]1c1ccc(NC(=O)OCCCC(=O)O)cc1` [Compound B-86], the IC50 with SJSA-1 is 0.239 µM; in the test with A431 (Homo sapiens, A-431, 24 h) it was over 10 µM; in the test with 786-O it was 0.227 µM.
`C#CC(=O)N1[C@@H](CCCC)Cc2c([nH]c3c(F)cc(F)cc23)[C@@H]1c1ccc(NC(=O)CCCCC(=O)O)cc1` [Compound B-87]: the IC50 in the test with SJSA-1 was over 10 µM; with A431 (Homo sapiens, A-431, 24 h), over 10 µM; in the test with 786-O it was over 10 µM.
`CCCCCOC(=O)Nc1ccc([C@H]2c3[nH]c4c(F)cc(F)cc4c3C[C@H](CCCC)N2C(=O)CCl)cc1` [Compound B-89]: the half-maximal inhibitory concentration (IC50) in the test with SJSA-1 was 0.002 µM; with A431 (Homo sapiens, A-431, 24 h), over 10 µM; in the test on 786-O, 0.008 µM.
Turning to `CCCCCOC(=O)NC12CC([C@H]3c4[nH]c5c(F)cc(F)cc5c4C[C@H](CCCC)N3C(=O)CCl)(C1)C2` [Compound B-90], the IC50 is 0.03 µM in the test with SJSA-1; over 10 µM with A431 (Homo sapiens, A-431, 24 h); 0.013 µM in the test on 786-O.
As to `C#CC(=O)N1[C@@H](CCCC)Cc2c([nH]c3ccccc23)[C@@H]1CCCCC` [Compound B-92], the IC50 was 0.17 µM in the test with SJSA-1; over 10 µM with A431 (Homo sapiens, A-431, 24 h); 0.137 µM in the test with 786-O.
Consider `C#CC(=O)N1[C@@H](CCCC)Cc2c([nH]c3ccccc23)[C@@H]1CCCCCC` [Compound B-93], for which the IC50 in the test with SJSA-1 was 0.077 µM; with A431 (Homo sapiens, A-431, 24 h) it was over 10 µM; in the test with 786-O, 0.091 µM.
